Article PMC11124362, “Metabolism, Disposition, Excretion, and Potential Transporter Inhibition of 7–16, an Improving 5-HT2A Receptor Antagonist and Inverse Agonist for Parkinson’s Disease” (Molecules, 2024)

Tests used:
[1] = Metabolite identification in monkey liver microsomes; format: in vitro ADME; details: 7–16 10 µM, liver microsomes 1 mg/mL, NADPH, 37 °C, 60 min
Description: In accordance with our previous methods, 7–16 (10 µM) was incubated with mouse, rat, dog, monkey, and human liver microsome proteins (1 mg/mL) in 100 mM sodium phosphate buffer (pH 7.4) containing 10 mM magnesium chloride and 2 mM NADPH at 37 °C for 60 min. All samples were prepared in duplicates. The reactions were terminated by adding three times the volume of ice-cold acetonitrile (600 µL) and stored at −20 °C until analysis. Control samples without NADPH and 0-time point samples were included. As a positive control, testosterone (10 µM), which was metabolized to produce the hydroxylation metabolite, was used as a substrate to confirm the activity of the incubation system.
After pre-treatments, the samples were analyzed by an Acquity UPLC system coupled with a diode array detector (Waters Corporation, Milford, MA, USA) and Q Exactive HRMS (Thermo Electron Corporation, Waltham, MA, USA) (UPLC–UV-Q Exactive HRMS). Samples were separated on an Agilent XDB C18 column (150 × 2.1 mm i.d. 3.5 μm, Agilent Corporation, Santa Clara, CA, USA) at 40 °C by gradient elution with water and acetonitrile containing 0.1% formic acid. The flow rate was 0.40 mL/min. The ultraviolet (UV) detection wavelength was 286 nm. Q Exactive HRMS were operated at positive ion mode (3.5 kV) using a heating electrospray ionization source. Mass calibration was required to be performed before conducting experiments so as to achieve the best mass accuracy and mass calibration should be performed every five days. The metabolites were detected by full MS/dd-MS^2 analysis from m/z 100 to m/z 1000. The resolution of the first-class scan and second-class scan was 70,000 and 17,500, respectively. Thermo Compound Discover software was used to identify expected and unknown metabolites, and we finally proposed the 7–16 metabolic pathways based on the deduced metabolites and relevant drug biotransformation knowledge.

OATP1B1 = target: T1, OATP1B1 (Homo sapiens, UniProt Q9Y6L6)
T1 sequence (Q9Y6L6 1-691): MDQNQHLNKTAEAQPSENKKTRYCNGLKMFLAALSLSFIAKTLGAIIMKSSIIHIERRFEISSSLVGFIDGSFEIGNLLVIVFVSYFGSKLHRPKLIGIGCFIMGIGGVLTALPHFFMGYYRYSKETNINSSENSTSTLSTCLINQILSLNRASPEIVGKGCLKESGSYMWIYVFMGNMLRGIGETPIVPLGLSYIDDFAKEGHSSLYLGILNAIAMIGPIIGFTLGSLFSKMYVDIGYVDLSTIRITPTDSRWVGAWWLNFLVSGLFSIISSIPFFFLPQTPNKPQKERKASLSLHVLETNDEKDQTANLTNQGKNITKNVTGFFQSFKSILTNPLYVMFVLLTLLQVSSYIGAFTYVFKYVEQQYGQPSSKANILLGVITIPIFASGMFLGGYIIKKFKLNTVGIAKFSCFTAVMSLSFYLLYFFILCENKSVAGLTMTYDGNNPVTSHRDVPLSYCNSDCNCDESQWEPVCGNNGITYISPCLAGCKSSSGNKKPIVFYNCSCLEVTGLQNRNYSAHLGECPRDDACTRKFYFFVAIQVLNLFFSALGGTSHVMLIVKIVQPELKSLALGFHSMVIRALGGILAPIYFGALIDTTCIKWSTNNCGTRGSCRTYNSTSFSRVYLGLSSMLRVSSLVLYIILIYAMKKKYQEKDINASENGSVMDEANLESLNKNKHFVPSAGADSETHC

OAT3 = target: T2, OAT3 (Homo sapiens, UniProt Q8TCC7)
T2 sequence (Q8TCC7 1-542): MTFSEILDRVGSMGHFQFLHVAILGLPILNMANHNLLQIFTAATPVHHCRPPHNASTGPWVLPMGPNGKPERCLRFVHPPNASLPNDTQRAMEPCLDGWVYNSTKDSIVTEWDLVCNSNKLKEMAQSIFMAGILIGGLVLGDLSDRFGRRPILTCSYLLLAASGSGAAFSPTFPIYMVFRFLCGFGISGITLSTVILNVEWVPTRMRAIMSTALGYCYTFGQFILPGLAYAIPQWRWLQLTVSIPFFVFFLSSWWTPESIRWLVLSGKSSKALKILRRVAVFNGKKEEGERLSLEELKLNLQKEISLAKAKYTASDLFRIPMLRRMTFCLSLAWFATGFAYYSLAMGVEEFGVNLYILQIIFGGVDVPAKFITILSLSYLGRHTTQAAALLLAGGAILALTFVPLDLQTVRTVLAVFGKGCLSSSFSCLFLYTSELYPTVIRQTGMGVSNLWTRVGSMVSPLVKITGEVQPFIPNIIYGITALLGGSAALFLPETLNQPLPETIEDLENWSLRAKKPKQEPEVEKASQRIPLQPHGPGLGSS

CYP2C8 = experiment: Metabolic phenotype by rhCYP isozymes, CYP2C8; format: in vitro ADME, human; details: 7–16 1 µM
Description: Based on the result of metabolite identification, two metabolites were selected as targets for metabolic phenotyping analysis. Seven CYP isozymes (CYP1A2, CYP2B6, CYP2C8, CYP2C9, CYP2C19, CYP2D6, and CYP3A4) were investigated using the rhCYP isozymes method. In brief, 7–16 (1 µΜ) was incubated with each rhCYP isozyme ([…]) in 100 mM sodium phosphate buffer (pH 7.4) containing 3 mM magnesium chloride. After 10 min of preincubation at 37 °C, the reactions were initiated by adding NADPH (1 mM) and then incubated at 37 °C in a shaking water bath for 0, 5, 15, and 30 min. The specific substrates of each rhCYP isozyme were incubated as the above method to confirm the activity of the incubation system. The samples were prepared in triplicates. The reactions were terminated by adding three times the volume of ice-cold acetonitrile (600 µL) and stored at −20 °C until analysis. After pre-treatment, the samples were determined by the LC–MS/MS (Shimadzu Exion-Triple Quad 4500) method. The relative contribution rate of each isozyme to the metabolism of 7–16 was evaluated in HLMs using the following formula: Contributionx% = Vx × Abundancex (pmol/mg protein)/Σ(Vi × Abundancei). Vx (µL/min/pmol) is the production rate of metabolites for each rhCYP isozyme.

CN1CCC(N(Cc2ccc(F)cn2)C(=O)NCc2ccc(OCC(F)(F)F)cc2)CC1 [7–16, 3-(4-(2,2,2-trifluoroethoxy)benzyl)-1-((5-fluoropyridin-2-yl)methyl)-1-(1-methylpiperidin-4-yl) urea]
Relative Abundance, UV Area% Monkey [1]: 90.6% | IC50 (OATP1B1): > 100 µM | IC50 (OAT3): > 100 µM | relative contribution of CYP2C8 to metabolism (CYP2C8): little or no contribution
